According to patent US20240287123A1 (Victoria Link Limited, priority 2021, published 2024):
“Also recorded” adds a separate entry of the source. Read-outs that look alike come from different tables or passages of the source.

Assays:
EBV (Akata/Akata) = experiment: EBV assay: viral DNA quantification in induced Akata cells; type: cell-based, Epstein-Barr virus; conditions: for activity against EBV: cell-based assay, highest concentration tested in primary assays 50 μM
Experimental: Akata cells were obtained from Louisiana State University, Baton Rouge, LA. The HCMV strain AD169 was obtained from the American Type Culture Collection (ATCC, Manassas, VA). Akata cells latently infected with EBV were obtained from Louisiana State University, Baton Rouge, LA.
(§1) Each experiment that evaluates the antiviral activity of compounds includes both positive and negative control compounds to ensure the performance of each assay. Concurrent assessment of cytotoxicity was also performed for each study in the same cell line and with the same compound exposure.
Assays for EBV were performed by reported methods.^37 Akata cells were induced to undergo a lytic infection with 50 μg/ml of a goat anti-human IgG antibody. Experimental compounds were diluted within plates. The cells were added and incubated for 72 h. Similar plates were initiated without virus induction/addition and used for measuring cytotoxicity by the addition of CTG. For all assays, the replication of the virus was assessed by the quantification of viral DNA. For EBV, primers 5′-[…]-3′ and 5′-CAG TTC CTC GCCTTAGGTTG-3 amplified a fragment corresponding to coordinates 96802-97234 in EBV genome (AJ507799). Compound concentrations sufficient to reduce genome copy number by 50% were calculated from experimental data as well as compound cytotoxicity.

[1] = Cytotoxicity in Akata cells (CTG), concurrent with EBV assay; type: cell-based; conditions: human, Table 1
Experimental: as §1
Assays for EBV were performed by reported methods.^37 Akata cells were induced to undergo a lytic infection with 50 μg/ml of a goat anti-human IgG antibody. Experimental compounds were diluted within plates. The cells were added and incubated for 72 h. Similar plates were initiated without virus induction/addition and used for measuring cytotoxicity by the addition of CTG. For all assays, the replication of the virus was assessed by the quantification of viral DNA. […] Compound concentrations sufficient to reduce genome copy number by 50% were calculated from experimental data as well as compound cytotoxicity.

HHV-6B (Z29; MOLT-3) = experiment: HHV-6B antiviral assay (Z29; MOLT-3); type: cell-based, human betaherpesvirus 6B
HIVADA = experiment: HIV p24 alphaLISA in infected monocyte derived macrophages; type: cell-based, Human Immunodeficiency Virus
Experimental: Primary human MDMs were cultured from peripheral blood mononuclear cells and pre-treated for 24 h with ddhC (100 μM), compound 8 (100 μM), compound 21 (100 μM), emtricitabine control (15 μM, 10 μM, 1 μM, 0.1 μM), or the drug vehicle, DMSO. MDM were then infected with HIVADA in the presence of these compounds and treated daily (with compound), while culture supernatants were collected to quantify levels of HIV p24, a viral capsid protein, on days 2-7 of infection.
Leukopaks from healthy donors were obtained from the New York Blood Center and processed by Ficoll gradient centrifugation to isolate peripheral blood mononuclear cells (PBMC). These PBMC were cultured adherently into monocyte derived macrophages (MDM), according to published protocols, on 60 mm dishes for 6 days with 10-20 ng/ml macrophage colony stimulating factor (M-CSF). MDM were pre-treated with ddhC, compound 8, compound 21, emtricitabine (Cat. No .: 10071), or DMSO vehicle at indicated concentrations for 24 hours (NIH AIDS Reagent Program, Bethesda, MD). Cells were left uninfected or infected for 24 h in the presence of one of the compounds listed above with 20 ng/mL HIVADA, a macrophage-tropic HIV strain originally derived from a person with HIV (NIH). Media was changed daily with the mentioned compounds added each time, and supernatants were collected on days 2, 3, 4, 5, 6, and 7 of infection. Each treatment condition was analyzed in duplicate plates per experiment.
Supernatant samples were analyzed for the viral capsid protein, HIV p24, by a sensitive p24 alphaLISA according to the manufacturer's protocol (Perkin-Elmer, Waltham, MA). Treatment conditions were analyzed in duplicate plates, and each supernatant was analyzed in duplicate on a 96-well alphaLISA plate. These were then fit to a sigmoid standard curve to extrapolate HIV p24 levels in pg/mL within the assay limits of detection.

primary human MDM = experiment: Toxicity to MDM: LDH assay and light microscopy; type: cell-based
Experimental: Light microscopy was used to image MDMs on day 7 of infection. […] Colorimetric LDH assays were also performed on culture supernatants from these same cells on day 4 of infection to assess cell death.
At the end of each experiment, cells were imaged by light microscopy. After aspirating off media, cells were washed with PBS, and lysates were harvested in extraction buffer containing 0.1% Formic acid, 50% ACN, 40% MeOH, 10% H2O.
Drug toxicity was analyzed using an LDH assay kit according to manufacturer's instructions (Abcam #ab65393, Toronto, Canada). Briefly, supernatants from duplicate plates per treatment condition were added to a 96-well plate. Each supernatant was run in triplicate. Provided assay buffer was added to culture supernatants after mixing with a substrate solution that turns orange upon lactate exposure. After incubation for 30-45 min, colorimetric signal was quantified an OD of 450 nm. LDH was a positive control as well as cells lysed with 10% lysis buffer in media representing the “high control” to which % cytotoxicity was measured. The reference sample was either control uninfected cells treated with DMSO or negative control HIV-infected cells treated with DMSO. Culture media alone was used as a technical negative control. This background signal that was subtracted from all test wells.

[2] = human gammaherpesvirus 4, Akata, read-out: Result for compound (EC50/UM), EBV Akata/Akata, assay order Secondary
[3] = human gammaherpesvirus 4, Akata, Akata/Akata, Table 1, read-out: EBV EC50
[4] = human gammaherpesvirus 4, Akata, read-out: EC50 against EBV
[5] = human gammaherpesvirus 4, Akata, read-out: Result for compound (EC50/UM), EBV Akata/Akata, assay order Primary
[6] = human gammaherpesvirus 4, Akata, EBV Akata/Akata, assay order Secondary, read-out: Result for compound (EC50/UM)

## CC(C)(C)C(=O)SCCOP(=O)(OCCSC(=O)C(C)(C)C)OCC1=C[C@@H](O)[C@H](n2ccc(NO)nc2=O)O1
EBV (Akata/Akata); [2]
  EC50: 16.6 µM

## Nc1ccn(C[C@@H](CO)OCP(=O)(O)O)c(=O)n1 [Cidofovir, cidofovir, reference compound]
EBV (Akata/Akata); EBV Akata/Akata, control run alongside, Primary, read-out: CDV control result (EC50/UM)
  EC50: 2.58 µM
EBV (Akata/Akata); EBV Akata/Akata, control run alongside, Secondary, read-out: CDV control result (EC50/UM)
  EC50: 1.93 µM
EBV (Akata/Akata); [3]
  EC50: 8.25 µM
EBV (Akata/Akata); [4]
  EC50: 8.25 µM
EBV (Akata/Akata); read-out: CDV control result (EC50/UM), EBV Akata/Akata, control run alongside, Secondary
  EC50: 5.95 µM
[1]; Akata cells (without virus induction)
  CC50 at 72 h: > 100 µM
HHV-6B (Z29; MOLT-3); cidofovir (CDV) control, MOLT-3, HHV-6B, control run alongside, Primary, read-out: CDV control result (EC50/UM)
  EC50: 3.42 µM
HHV-6B (Z29; MOLT-3); cidofovir (CDV) control, MOLT-3, HHV-6B, control run alongside, Secondary, read-out: CDV control result (EC50/UM)
  EC50: 4.26 µM

## CC(C)OC(=O)[C@H](C)N[P@](=O)(OCC1=C[C@@H](O)[C@H](n2ccc(N)nc2=O)O1)Oc1ccccc1 [Compound 21, 3′-Deoxy-3′,4′-didehydrocytidine-5′-O-[phenyl(isopropoxy-L-alaninyl) ]-Sp-phosphoramidate]
EBV (Akata/Akata)
  activity against EBV: more weakly inhibiting
EBV (Akata/Akata); [3]
  EC50: 23.7 µM
EBV (Akata/Akata); [5]
  EC50: 23.8 µM
EBV (Akata/Akata); [4]
  EC50: 7.6 to 38.7 µM
[1]
  CC50 at 72 h: > 50 µM
HIVADA; 100 μM, infected MDM, days 2-7, compared with DMSO control
  levels of HIV p24 viral capsid protein: significantly reduce; also recorded: significantly decreased
HIVADA; low doses: compound 8 compound 21 (0.1-1 μM) as printed
  impact on HIV replication relative to the DMSO control: minimal impact
Primary human MDM; 100 μM, day 4 of infection
  LDH activity in HIV-infected MDMs relative to DMSO controls: nearly identical
Primary human MDM; 100 uM, visual inspection by light microscopy and colorimetric LDH assays
  toxicity to MDMs: non-toxic

## CC(C)(C)C(=O)OCC1=C[C@@H](O)[C@H](n2ccc(N)nc2=O)O1 [Compound 25]
EBV (Akata/Akata)
  activity against EBV: comparably active

## CCCCCC(=O)OCC1=C[C@@H](O)[C@H](n2ccc(N)nc2=O)O1 [Compound 27]
EBV (Akata/Akata)
  activity against EBV: inactive

## CC(C)[C@H](N)C(=O)OCC1=C[C@@H](O)[C@H](n2ccc(N)nc2=O)O1 [Compound 30, 3′,4′-Didehydro-3′-deoxy-5′-O-L-valinoylcytidine]
EBV (Akata/Akata)
  activity against EBV: comparably active

## CCC(CC)COC(=O)[C@H](C)N[P@](=O)(OCC1=C[C@@H](O)[C@H](n2ccc(N)nc2=O)O1)Oc1ccccc1 [Compound 32, 3′,4′-Didehydro-3′-deoxycytidine-5′-0-{phenyl [2-(ethyl)but-1-yloxy-L-alaninyl] }-Sp-phosphoramidate]
EBV (Akata/Akata)
  activity against EBV: not active

## CC(C)(C)C(=O)OCOP(=O)(OCOC(=O)C(C)(C)C)OCC1=C[C@@H](O)[C@H](n2ccc(N)nc2=O)O1 [Compound 35, 3′,4′-Didehydro-3′-deoxycytidine-5′-bis(pivaloyloxymethyl)phosphate]
EBV (Akata/Akata)
  activity against EBV: inactive

## CC(C)C(=O)OCC1=CC[C@H](n2ccc(N)nc2=O)O1 [Compound 39, 3′,4′-Didehydro-2′,3′-dideoxy-5′-O-isobutyroylcytidine]
EBV (Akata/Akata)
  activity against EBV: activity comparable to their 2′-hydroxylated analogues
HHV-6B (Z29; MOLT-3)
  activity against HHV-6B: active
HHV-6B (Z29; MOLT-3); Human betaherpesvirus 6B, MOLT-3, HHV-6B Z29, MOLT-3, Primary, read-out: Result for compound (EC50/UM)
  EC50: 5.54 µM
HHV-6B (Z29; MOLT-3); Human betaherpesvirus 6B, MOLT-3, HHV-6B Z29, MOLT-3, Secondary, read-out: Result for compound (EC50/UM)
  EC50: 16.7 µM

## Nc1ccn([C@H]2CC=C(CO)O2)c(=O)n1 [Compound A-30, 3′,4′-Didehydro-2′,3′-dideoxycytidine]
EBV (Akata/Akata)
  activity against EBV: activity comparable to their 2′-hydroxylated analogues

## CC(C)C(=O)OCC1=C[C@@H](O)[C@H](n2ccc(N)nc2=O)O1 [drawing 64, 3′-Deoxy-3′,4′-didehydro-5′-O-isobutyroyl-cytidine]
EBV (Akata/Akata); [6]
  EC50: 16.1 µM

## CC(=O)OCC1=C[C@@H](O)[C@H](n2ccc(N)nc2=O)O1 [drawing 67]
EBV (Akata/Akata); [5]
  EC50: 8.96 µM

## CC(=O)OCC1=C[C@@H](O)[C@H](n2ccc(N)nc2=O)O1 [drawing 68]
EBV (Akata/Akata); [2]
  EC50: 7.96 µM

## CC(C)(C)C(=O)OCC1=C[C@@H](O)[C@H](n2ccc(N)nc2=O)O1 [drawing 69]
EBV (Akata/Akata); [6]
  EC50: 15.9 µM

## CC(C)[C@H](N)C(=O)OCC1=C[C@@H](O)[C@H](n2ccc(N)nc2=O)O1 [drawing 70]
EBV (Akata/Akata); [6]
  EC50: 18.5 µM

## Nc1ccn([C@H]2CC=C(CO)O2)c(=O)n1 [drawing 72, 3′,4′-Didehydro-2′,3′-dideoxycytidine]
EBV (Akata/Akata); [5]
  EC50: 29.6 µM

## CC(C)C(=O)OCC1=CC[C@H](n2ccc(N)nc2=O)O1 [drawing 73, 3′,4′-Didehydro-2′,3′-dideoxy-5′-O-isobutyroylcytidine]
EBV (Akata/Akata); [5]
  EC50: 6.31 µM

## CC(C)C(=O)OCC1=CC[C@H](n2ccc(N)nc2=O)O1 [drawing 74, 3′,4′-Didehydro-2′,3′-dideoxy-5′-O-isobutyroylcytidine]
EBV (Akata/Akata); [6]
  EC50: 7.09 µM

## CCCCCC(=O)OCC1=C[C@@H](O)[C@H](n2ccc(N)nc2=O)O1 [drawing 75]
EBV (Akata/Akata); [5]
  EC50: > 50 µM

## CC(C)(C)C(=O)OCOP(=O)(OCOC(=O)C(C)(C)C)OCC1=C[C@@H](O)[C@H](n2ccc(N)nc2=O)O1 [drawing 76]
EBV (Akata/Akata); [5]
  EC50: > 50 µM

## CCC(CC)COC(=O)[C@H](C)N[P@](=O)(OCC1=C[C@@H](O)[C@H](n2ccc(N)nc2=O)O1)Oc1ccccc1 [drawing 77]
EBV (Akata/Akata); [5]
  EC50: > 50 µM
